In US12016974B2, “Nitric oxide releasing surfaces for decreased fouling, thrombosis, and infection of medical devices” (priority 2016, dated 2024):
≈ marks a conversion by molar mass, not a printed value.

How the values were obtained:
[1] = Solubility of SNAP in silicone oil; assay type: physicochemical; conditions: oil or lipid, thermodynamic from solid
Experimental: Leaching of SNAP from the silicone tubing was repeated during the oil swelling process as well, to ensure large amounts of SNAP were not lost during the 3-day swelling period. Sections of SNAP impregnated tubing were massed and placed in 4 mL of silicone oil. The absorbance spectra of silicone oil were taken to ensure no interference would be seen between the SNAP maxima and the oil. […] Therefore, the same calibration curve of SNAP in PBS-EDTA was used for determining SNAP concentration in the silicone oil. Solubility of SNAP in silicone oil was determined by adding 10 mg/mL and put on a vortex mixer for 2 min. The suspension was then centrifuged (10 min, 3000 rpm), and a 1 mL sample of the silicone oil was taken for UV vis spectroscopy.

[2] = after 6 months at room temperature; cited from earlier work

Compound: CC(=O)N[C@@H](C(=O)O)C(C)(C)SN=O (racemic) [SNAP, S-nitroso-N-acetylpenicillamine]
- solubility at 2 min [1]: 0.4 µg/mL (≈ 1.82 µM)
- SNAP activity retained within a polymer matrix [2]: 87%
